The source of these data is patent US20200399238A1, “THERAPEUTIC AURONES” (MIDDLE TENNESSEE STATE UNIVERSITY, priority 2016, published 2020).

What is called IC50 is the concentration needed to halve the response being measured.

Assay [1] has as its system rat skeletal muscle cell line, L6. In words: cells. In kind it is cell-based. Here is the method: Cells were maintained in high glucose DMEM obtained from HyClone Laboratories (Logan, Utah) and supplemented with FCS and P/S at the same concentrations used for parasite culture. Cells were passaged every 3-4 days and maintained in a 37° C. humidified incubator in an atmosphere of 5% CO2. For assays. cells were detached, counted using a hemocytometer, and adjusted using fresh media to deliver 5×10^3 cells per well (90 μL) in black walled, flat clear bottom 96-well microtiter plates. After 3 h incubation for attachment, compounds diluted in culture medium were added (10 μL) to triplicate wells. Positive controls (cells treated with podophyllotoxin (Sigma, St. Louis, Mo.)), negative controls (untreated cells), solvent controls (DMSO) and media blanks were included on each plate. Following incubation for 71.5 h, 11 μL of PrestoBlue was added into each well.

Assay [2] concerns Leishmania amazonensis promastigotes expressing beta-lactamase. In words: microbe, parasite or virus in culture. In kind it is cell-based. Here is the method: Leishmania amazonensis promastigotes expressing beta-lactamase (Buckner et al., Am. J. Trop. Med. Hyg. 72 (2005) 600-605. doi:72/5/600 [pii]) were cultured in RPMI supplemented with 10% fetal calf serum and 1% pen-strep-glut solution (Sigma) at 27° C. Stationary phase promastigotes were adjusted in fresh media, treated with compounds, and incubated at 37° C. At 24 hours, 100 uL of cultures was added to 50 uL of the CellTiter Glo® solution. Luminescence readings were taken with a spectrophotometer and used to calculate inhibition.

The test system of assay [3] is Trypanosoma brucei brucei 427 cells. In words: T. brucei culture and assay (PrestoBlue). In kind it is cell-based.
Assay [4] concerns Trypanosoma cruzi Tulahuen cells expressing beta-galactosidase. Description: T. cruzi intracellular assay (beta-galactosidase, L6 host cells).
Setting [5] is: Rattus norvegicus, Table 1, read-out: IC50 Toxicity (L6).
Where [6] appears, read: Table 2, L6 mammalian cells, read-out: IC50 Toxicity (L6).
Setting [7] is: Leishmania amazonensis, read-out: IC50 L. amaz.
The mark [8] stands for this setting: Table 2, L6 IC50 / L. amazonensis IC50.
Where [9] appears, read: Table 2, mean of 2(+) independent trials, read-out: IC50 T. brucei.
The mark [10] stands for this setting: Trypanosoma brucei, Table 1, mean of 2(+) independent trials, read-out: IC50 T. brucei.
Setting [11] is: Trypanosoma cruzi, TULAHUEN, read-out: IC50 T. cruzi, Table 1, intracellular assay, mean of 2(+) trials (^c one trial).
[12] abbreviates: Trypanosoma cruzi, TULAHUEN, read-out: IC50 T. cruzi, Table 2, intracellular assay, mean of 2(+) independent trials.
The mark [13] stands for this setting: Leishmania amazonensis, read-out: IC50 L. amaz. (footnote c: value obtained from one trial).
[14] abbreviates: Trypanosoma cruzi, TULAHUEN, read-out: T. cruzi IC50 dose.
Setting [15] is: Table 1, intracellular T. cruzi IC50.
The mark [16] stands for this setting: Table 2, L6 IC50 / T. cruzi IC50 (intracellular assay).

Like-named read-outs stand apart in the source and are kept apart here. Where only a bound is given, the exact number is not on record here.

Take `O=C1/C(=C/c2ccc(C(F)(F)F)cc2)Oc2cc(O)ccc21` [Aurone 2909, (Z)-6-hydroxy-2-(4-(trifluoromethyl)benzylidene)benzofuran-3(2H)-one]: the IC50 in assay [1] (setting [5]) was > 100 µM; in assay [1] (setting [6]), > 100 µM; in assay [2] (setting [7]) it was 3.97 µM; in assay [3] (setting [9]), > 50 µM; in assay [3] (setting [10]), > 50 µM; in assay [4] (setting [11]), > 50 µM. The IC50 in assay [4] (setting [12]) was > 50 µM. In addition, the “Selectivity L6/La” value in assay [2] (Table 1) and in assay [2] (setting [8]) was >25.19 each time.

Regarding `CC(=O)N1/C(=C\c2ccc[nH]2)C(=O)c2ccccc21` [AA5A], the IC50 in assay [1] (setting [5]) is 39.8 µM; in assay [2] (setting [7]), < 1 µM; in assay [3] (setting [10]) it was 26.3 µM; in assay [4] (setting [11]), 33.5 µM; in assay [4] (setting [12]) it was 33.5 µM.

Turning to `O=C1/C(=C/c2ccc(-c3ccccc3)cc2)Oc2ccccc21` [Aurone 2018], the IC50 is 298 µM in assay [1] (setting [5]); 7.22 µM in assay [2] (setting [7]); > 50 µM in assay [3] (setting [10]); 34.4 µM in assay [4] (setting [11]); 34.4 µM in assay [4] (setting [12]).

In the case of `O=C1/C(=C/C=C/c2ccccc2)Oc2ccccc21` [Aurone 2013], the IC50 is 58 µM in assay [1] (setting [5]); 3.03 µM in assay [2] (setting [7]); 3.03 µM in assay [2] (setting [13]); 13.2 µM in assay [3] (setting [10]); 13.2 µM in assay [3] (Trypanosoma brucei, read-out: T. brucei IC50 dose); 14.1 µM in assay [4] (setting [11]). Also, the concentration for half-maximal inhibition (IC50) in assay [4] (setting [12]) and in assay [4] (setting [14]) was 14.1 µM each time.

Take `COc1ccc(/C=C2\Oc3ccccc3C2=O)c(OC)c1OC` [Aurone 2001]: the IC50 in assay [1] (setting [5]) was > 100 µM; in assay [2] (setting [7]), 13.3 µM; in assay [3] (setting [10]), 22.4 µM; in assay [4] (setting [11]) it was > 50 µM.

Consider `CC(=O)N1/C(=C\c2ccccc2O)C(=O)c2ccccc21` [AA3A], for which the half-inhibitory concentration (IC50) is > 200 µM in assay [1] (setting [5]); < 1 µM in assay [2] (setting [7]); > 50 µM in assay [3] (setting [10]); > 50 µM in assay [4] (setting [11]); > 50 µM in assay [4] (setting [12]).

As to `CC(C)c1ccc(/C=C2\Oc3ccccc3C2=O)cc1` [Aurone 8002, (Z)-2-(4-isopropylbenzylidene)benzofuran-3(2H)-one], the half-inhibitory concentration (IC50) worked out at 89 µM in assay [1] (setting [5]); 2.88 µM in assay [2] (setting [7]); 2.88 µM in assay [2] (setting [13]); 43.4 µM in assay [3] (setting [10]); 16.6 µM in assay [4] (setting [11]); 16.6 µM in assay [4] (setting [12]).

Regarding `COc1cc(/C=C2\Oc3ccccc3C2=O)cc(OC)c1OC` [Aurone 2002], the IC50 in assay [1] (setting [5]) is > 100 µM; in assay [2] (setting [7]), 12.6 µM; in assay [3] (setting [10]) it was > 50 µM; in assay [4] (setting [11]), > 50 µM.

With `Cc1ccc(/C=C2\Oc3ccccc3C2=O)cc1` [Aurone 9065, (Z)-2-(4-methylbenzylidene)benzofuran-3(2H)-one], the 50% inhibitory concentration (IC50) is > 100 µM in assay [1] (setting [5]); > 100 µM in assay [1] (Rattus norvegicus, Table 3A, weighted means of two or more independent trials, read-out: IC50 L6); > 100 µM in assay [1] (setting [6]); 1.37 µM in assay [2] (setting [7]); > 50 µM in assay [3] (setting [9]); > 50 µM in assay [3] (setting [10]). Besides, the concentration for half-maximal inhibition (IC50) in assay [4] (setting [11]) was 8.63 µM; in assay [4] (setting [12]), 8.63 µM; in assay [4] (Trypanosoma cruzi, TULAHUEN, read-out: IC50 TC-I, Table 3A, weighted means of two or more independent trials), 8.63 µM. Further, the “Selectivity L6/La” value in assay [2] (Table 1) and in assay [2] (setting [8]) was >72.99 each time. The “Selectivity L6/Tc” value in assay [4] (setting [15]) and in assay [4] (setting [16]) was >11.59 each time. The “Selectivity L6/TC-I” value in assay [4] (Table 3A, estimated from highest L6 dose tested where no L6 IC50) is >11.59.

For `O=C1/C(=C/c2cccc([N+](=O)[O-])c2)Oc2ccccc21` [Aurone 2015], the IC50 in assay [1] (setting [5]) came to 226 µM; in assay [2] (setting [7]), 1.71 µM; in assay [3] (setting [10]) it was 29.2 µM; in assay [4] (setting [11]), 22.6 µM; in assay [4] (setting [12]), 22.6 µM.

In the case of `CN(C)c1ccc(/C=C2\Oc3ccccc3C2=O)cc1` [Aurone 9087, (Z)-2-(4-(dimethylamino)benzylidene)benzofuran-3(2H)-one], the IC50 in assay [1] (setting [5]) amounted to 144 µM; in assay [2] (setting [7]), 1.65 µM; in assay [3] (setting [10]) it was 39 µM; in assay [4] (setting [11]), 5.38 µM; in assay [4] (setting [12]) it was 5.38 µM; in assay [4] (setting [14]), 5.38 µM. The “selectivity for T. cruzi (L6/Tc)” value in assay [4] is 26.83.

On to `O=C1/C(=C/c2ccc([N+](=O)[O-])cc2)Oc2ccccc21` [Aurone 2010], for which the concentration for half-maximal inhibition (IC50) in assay [1] (setting [5]) was 249 µM; in assay [2] (setting [7]) it was 14.5 µM; in assay [3] (setting [10]), 40.7 µM; in assay [4] (setting [11]), 20 µM; in assay [4] (setting [12]), 20 µM.

With `O=C1/C(=C/c2ccc[nH]2)Oc2ccccc21` [Aurone 2021], the half-maximal inhibitory concentration (IC50) in assay [1] (setting [5]) was 82.7 µM; in assay [1] (Rattus norvegicus, Table 3B, weighted means of two or more independent trials, read-out: IC50 L6), 82.7 µM; in assay [2] (setting [7]), < 1 µM; in assay [3] (setting [10]), 38.9 µM; in assay [4] (setting [11]) it was 14.6 µM; in assay [4] (setting [12]) it was 14.6 µM. Further, in assay [4] (Trypanosoma cruzi, TULAHUEN, read-out: IC50 TC-I, Table 3B, weighted means of two or more independent trials), the IC50 stood at 14.6 µM.

Consider `COc1ccc(/C=C2\Oc3cc(O)ccc3C2=O)cc1` [Aurone 6620, (Z)-6-hydroxy-2-(4-methoxybenzylidene)benzofuran-3(2H)-one], for which the half-inhibitory concentration (IC50) is > 100 µM in assay [1] (setting [5]); > 100 µM in assay [1] (setting [6]); < 1 µM in assay [2] (setting [7]); < 1 µM in assay [2] (setting [13]); < 1 µM in assay [3] (setting [9]); < 1 µM in assay [3] (setting [10]). Also, the IC50 in assay [4] (setting [11]) and in assay [4] (setting [12]) was 35.1 µM each time. The “Selectivity L6/La” value in assay [2] (Table 1) and in assay [2] (setting [8]) was >100 each time. Moreover, the “Selectivity L6/Tb” value in assay [3] (Table 1) is reported as >100; in assay [3] (Table 2, L6 IC50 / T. brucei IC50), >100. Moreover, the “Selectivity L6/Tc” value in assay [4] (setting [15]) and in assay [4] (setting [16]) was >2.85 each time.

For the molecule `O=C1/C(=C/[c-]2cccc2)Oc2ccccc21.[Fe+2].c1cc[cH-]c1` [Aurone 3001], the IC50 is > 100 µM in assay [1] (Table 1, read-out: IC50 Toxicity (L6)); > 100 µM in assay [1] (setting [6]); > 100 µM in assay [1] (Table 3C, weighted means of two or more independent trials, read-out: IC50 L6); < 1 µM in assay [2] (Table 1, mean of 2(+) trials, ^c value from one trial, read-out: IC50 L. amaz.); < 1 µM in assay [2] (Table 2, mean of 2(+) independent trials, read-out: IC50 L. amaz.); > 50 µM in assay [3] (Table 1, mean of 2(+) independent trials, read-out: IC50 T. brucei). Besides, the 50% inhibitory concentration (IC50) in assay [3] (setting [9]) was > 50 µM; in assay [3] (Table 3C, weighted means of two or more independent trials, read-out: IC50 TB) it was > 50 µM; in assay [4] (read-out: IC50 T. cruzi, Table 1, intracellular assay, mean of 2(+) trials (^c one trial)), > 50 µM; in assay [4] (read-out: IC50 T. cruzi, Table 2, intracellular assay, mean of 2(+) independent trials), > 50 µM; in assay [4] (read-out: IC50 TC-I, Table 3C, intracellular T. cruzi, weighted means of two or more independent trials), > 50 µM. The “Selectivity L6/La” value in assay [2] (setting [8]) is listed as >100.

`COc1cc(OC)c2c(c1)O/C(=C\c1cccc([N+](=O)[O-])c1)C2=O` [Aurone 7001]: the IC50 in assay [1] (setting [5]) is > 100 µM; in assay [2] (setting [7]), 22 µM; in assay [3] (setting [10]), > 50 µM; in assay [4] (setting [11]) it was > 50 µM.
